Assay results published in US8569007B2, “Method for reducing the appearance of false positive bands in SDS-page analysis of proteolytic digestion of a sample” (Merck Sharp & Dohme Corp., priority 2006, dated 2013).

Tested on: thiol-protease
Settings: 100 μM E-64; anti-IGF1R antibody substrate; overnight at room temperature; reducing SDS-PAGE (FIG. 5)
Experimental: Gels containing 4-20% polyacryamide were used for reducing SDS-PAGE. Recipes for buffers were as follows: • 1.5M Tris pH 8.8: Dissolve 90.73 g Tris base in 400 ml DI H2O. pH to 8.8 with Hydrochloric Acid. Bring to volume of 500 ml with DI H2O, Store at 4° C. (This is one of the components used to make pH 8.8 Sample Buffer—below) • pH 8.8 Sample Buffer: Combine the following: 228 ml of DI H2O, 50 ml Glycerol, 50 ml 1.5M Tris pH 8.8, 50 ml 10% SDS solution, and 10 ml 0.05% Bromophenol Blue. Store at 4° C. • 2× Reducing Sample Buffer: Prepare 3% by volume 2-Mercaptoethanol in pH 8.8 Sample Buffer. Prepare fresh prior to use.
The buffers were combined with the samples in equal volumes and allowed to sit overnight at room temperature before boiling. This increases the sensitivity of the assay for protease activity. The samples were then boiled directly before submitting for SDS-PAGE.
E-64 was dissolved in DMSO and EDTA was dissolved in sterile distilled water. Samples were allowed to incubate overnight at room temperature. Samples were then combined in equal parts with anti-IGF1R drug substance to yield a final concentration of 0.5 mg/ml antibody. Reducing buffer was added in equal parts to the samples containing antibody. Following overnight incubation, these samples were then loaded onto gels for reducing SDS-PAGE for a final load of 10-12 μg of antibody. […]

In the case of `CC(C)C[C@H](NC(=O)[C@H]1O[C@@H]1C(=O)O)C(=O)NCCCCN=C(N)N` (relative stereo) [E-64, trans-epoxy-succinyl-L-leucylamido-(4-guanidino)butane], the “inhibition of active thiol-protease in 1615 CHO medium supplement” value is reported as “inhibited”.
